Assay: In vivo PK studies in dog (oral administration): plasma levels of nalmefene
Settings: oral administration of nalmefene itself, Example C.2
Procedure: Doses at 10 mg/kg or 20 mg/kg body weight of a compound of formula (I) or of nalmefene itself in a solution of 20% HP-β-CD (hydroxypropyl-β-cyclodextrines) were used and orally administered to dogs.
Blood samples were taken over a period of 192 hours after oral administration. Blood samples were processed to obtain plasma. Plasma samples were analysed individually for nalmefene by means of a qualified LC-MS/MS-method.

For `C=C1CC[C@@]2(O)[C@H]3Cc4ccc(O)c5c4[C@@]2(CCN3CC2CC2)[C@H]1O5` [nalmefene, 17-cyclopropylmethyl-4,5α-epoxy-6-methylenemorphinan-3,14-diol], the “time for which plasma levels of nalmefene can be measured after oral administration (in words)” value was “a few hours”.

Reference: US20110053971A1, “NALMEFENE DI-ESTER PRODRUGS” (JANSSEN PHARMACEUTICA NV, priority 2008, published 2011)
